In patent publication US20260217693A1, “SRPK1 INHIBITORS AND METHODS OF USE” (ALLIANTHERA (SUZHOU) BIOPHARMACEUTICAL CO., LTD., priority 2023, published 2026) one finds IC50 data, which are given here for 56 molecules.

Bounds are passed on as bounds.

The target of the assay is SRPK1 (Homo sapiens, UniProt Q96SB4). Nature of the assay: SRPK1 assay, Method 1 (ADP-Glo luminescence). To be noted: Method 1 (no asterisk): substrate Human SRSF1/SF2, 25° C. for 90 min, test compounds 30 μM top, 3-fold, duplicate. It is filed as biochemical. On the procedure: The SPRK1 assay was performed as follows:
Method 1: The assay buffer was prepared. The reference compound was diluted to 10 mM. The test compounds were prepared at a concentration of 30 mM. Fifteen nL of compounds/DMSO were transferred to a multi-well plate. Then, 7.5 ul enzyme SRPK1 was added to each well, the plate was spun down at 1000 rpm and centrifuged for 30 sec. Then, 7.5 ul substrate Human SRSF1/SF2 was added to each well, the plate spun down at 1000 rpm and centrifuged for 30 sec. The plate was then incubated at 25° C. for 90 min. After 90 min, 5 μl of ADP-Glo™ Reagent was added to each well and the plate incubated at room temperature for 60 minutes. Then, 10 μl of Kinase Detection Reagent was added to each well and the plate incubate at room temperature for 60 minutes. The luminescence of each well was recorded on Envision. The test compounds were at 30 μM top, 3-fold, in duplicate, and the final concentration of DMSO was 0.1%.
All assays were performed using Method 1, except where indicated with an asterisk (*) in the below table, indicating Method 2 was used.
On the technique in general: In ADP-Glo the light output rises with the ADP produced.

SRPK1, sequence (Q96SB4 whole entry): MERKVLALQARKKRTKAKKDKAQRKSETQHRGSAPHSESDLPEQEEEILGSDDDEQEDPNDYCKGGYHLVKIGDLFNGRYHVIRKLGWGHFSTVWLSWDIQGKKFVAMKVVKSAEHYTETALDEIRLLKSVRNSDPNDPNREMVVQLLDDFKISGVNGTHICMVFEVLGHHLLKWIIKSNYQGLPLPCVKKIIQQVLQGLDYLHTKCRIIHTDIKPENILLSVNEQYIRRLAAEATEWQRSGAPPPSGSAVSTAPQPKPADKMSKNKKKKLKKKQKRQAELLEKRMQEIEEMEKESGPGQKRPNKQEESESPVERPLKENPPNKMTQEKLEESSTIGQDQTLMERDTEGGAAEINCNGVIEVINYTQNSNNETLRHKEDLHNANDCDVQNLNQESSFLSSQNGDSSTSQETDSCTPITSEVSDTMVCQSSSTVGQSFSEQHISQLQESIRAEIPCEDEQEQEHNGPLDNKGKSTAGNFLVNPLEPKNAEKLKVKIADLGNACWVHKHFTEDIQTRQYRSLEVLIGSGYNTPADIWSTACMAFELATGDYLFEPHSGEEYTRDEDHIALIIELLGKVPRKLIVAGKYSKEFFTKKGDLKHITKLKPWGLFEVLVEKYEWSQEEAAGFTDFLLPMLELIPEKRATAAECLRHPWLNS

Turning to `CC1C[C@@H](O)CCN1c1ncc(C(F)(F)F)cc1NC(=O)c1ccc(-c2ccncc2)o1` (stereo in doubt) [Compound 079, N-(2-((2R,4S)-4-hydroxy-2-methylpiperidin-1-yl)-5-(trifluoromethyl)pyridin-3-yl)-5-(pyridin-4-yl) furan-2-carboxamide], it took 102 nM to reach half-maximal inhibition (IC50). In other words, the sub-micromolar range.

On to `CC1C[C@@H](O)CCN1c1ncc(C(F)(F)F)cc1NC(=O)c1ccc(-c2ccncc2)o1` (stereo in doubt) [Compound 080, N-(2-((2S,4S)-4-hydroxy-2-methylpiperidin-1-yl)-5-(trifluoromethyl)pyridin-3-yl)-5-(pyridin-4-yl) furan-2-carboxamide], for which the IC50 (in general, the concentration that inhibits the measured activity by half) was determined as 344 nM.

For `O=C(Nc1cc(C(F)(F)F)cnc1N1CCN(Cc2ccccn2)CC1)c1ccc(C2CCOCC2)o1` [Compound 002, N-(2-(4-(pyridin-2-ylmethyl)piperazin-1-yl)-5-(trifluoromethyl)pyridin-3-yl)-5-(tetrahydro-2H-pyran-4-yl) furan-2-carboxamide], the half-maximal inhibitory concentration (IC50) is 309 nM.

As to `CN1CCN(c2ncc(C(F)(F)F)cc2NC(=O)c2ccc(-c3ccncc3)o2)CC1` [Compound 003], 971 nM corresponded to half-maximal inhibition (IC50). This IC50 is about 3.1-fold higher than that of the molecule before.

`O=C(Nc1cc(C(F)(F)F)cnc1N1CCC(O)CC1)c1ccc(-c2ccncc2)o1` [Compound 004, N-(2-(4-hydroxypiperidin-1-yl)-5-(trifluoromethyl)pyridin-3-yl)-5-(pyridine-4-yl) furan-2-carboxamide] gave an IC50 of 79 nM.

In turn, `O=C(Nc1cc(C(F)(F)F)cnc1N1CCC(O)CC1)c1ccc(C2CCOCC2)o1` [Compound 005] had an IC50 of 41.9 nM. Compared with the last molecule, the IC50 is about 1.9-fold lower.

On to `O=C(Nc1cc(Cl)cnc1N1CCC(O)CC1)c1ccc(C2CCOCC2)o1` [Compound 007], for which the IC50 turned out to be 252 nM.

`O=C(Nc1cc(C(F)(F)F)cnc1-c1ccccc1)c1ccc(C2CCOCC2)o1` [Compound 008] returned an IC50 of over 30000 nM.

Regarding `O=C(Nc1cc(C(F)(F)F)cnc1-c1cccnc1)c1ccc(C2CCOCC2)o1` [Compound 009], the IC50 is over 30000 nM.

For `O=C(Nc1cc(C(F)(F)F)cnc1-c1ccncc1)c1ccc(C2CCOCC2)o1` [Compound 010], the IC50 came to 8240 nM. In other words, the single-digit micromolar range.

Turning to `Cn1cc(-c2ncc(C(F)(F)F)cc2NC(=O)c2ccc(C3CCOCC3)o2)cn1` [Compound 011], the IC50 is 7490 nM.

For `O=C(Nc1cc(C(F)(F)F)cnc1-c1cn[nH]c1)c1ccc(C2CCOCC2)o1` [Compound 012], the concentration for half-maximal inhibition (IC50) came out at 109 nM. Compared with the last molecule, the IC50 is about 69-fold lower.

As to `O=C(Nc1cc(C(F)(F)F)cnc1-c1cncnc1)c1ccc(C2CCOCC2)o1` [Compound 013], the IC50 amounted to 14700 nM. This IC50 lies about 130-fold higher than the previous one.

In the case of `O=C(Nc1cc(C(F)(F)F)cnc1-c1cn[nH]c1)c1ccc(-c2ccncc2)o1` [Compound 014], the IC50 was over 30000 nM.

For the molecule `O=C(Nc1cc(C(F)(F)F)cnc1N1CCC(O)CC1)c1ccc(-c2ccnc(F)c2)o1` [Compound 016], the IC50 is over 30000 nM.

`O=C(Nc1cc(C(F)(F)F)cnc1-c1ccn[nH]1)c1ccc(C2CCOCC2)o1` [Compound 019]: the IC50 turned out to be 217 nM.

The molecule `O=C(Nc1cc(C(F)(F)F)cnc1N1CCC(O)CC1)c1ccc(-c2ccnc(O)c2)o1` [Compound 021] yielded an IC50 of 13.5 nM.

Turning to `O=C(Nc1cc(C2CC2)cnc1N1CCC(O)CC1)c1ccc(-c2ccnc(F)c2)o1` [Compound 023], half-maximal inhibition (IC50) required 55.1 nM.

On to `CC1(O)CCN(c2ncc(Cl)cc2NC(=O)c2ccc(-c3ccncc3)o2)CC1` [Compound 024], for which 346 nM corresponded to half-maximal inhibition (IC50).

For the molecule `CC1(O)CCN(c2ncc(Cl)cc2NC(=O)c2ccc(C3CCOCC3)o2)CC1` [Compound 025], the IC50 amounted to 170 nM. Compared with the last molecule, the IC50 is about 2-fold lower.

`CC1(O)CCN(c2ncc(C(F)(F)F)cc2NC(=O)c2ccc(-c3ccncc3)o2)CC1` [Compound 026] gave an IC50 of 358 nM.

For `CC1(O)CCN(c2ncc(C(F)(F)F)cc2NC(=O)c2ccc(C3CCOCC3)o2)CC1` [Compound 027, N-[2-(4-hydroxy-4-methyl-1-piperidyl)-5-(trifluoromethyl)-3-pyridyl]-5-tetrahydropyran-4-yl-furan-2-carboxamide], the IC50 was 36.7 nM.

`CC(=O)OC1CCN(c2ncc(C3CC3)cc2NC(=O)c2ccc(C3CCOCC3)o2)CC1` [Compound 028] yielded an IC50 of 105 nM.

As for `O=C(Nc1cc(C2CC2)cnc1N1CCC(O)CC1)c1ccc(C2CCOCC2)o1` [Compound 029], the midpoint of inhibition, the IC50, lay at 30.9 nM. This IC50 lies about 3.4-fold lower than the previous one.

Consider `CN1CCC2(CCN(c3ncc(C(F)(F)F)cc3NC(=O)c3ccc(C4CCOCC4)o3)CC2)C1=O` [Compound 030], for which the half-maximal inhibitory concentration (IC50) was determined as 232 nM.

Take `O=C(Nc1cc(C(F)(F)F)cnc1N1CCCC(O)CC1)c1ccc(C2CCOCC2)o1` (centres unmarked) [Compound 031]: the IC50 was determined as 360 nM.

`COC(=O)C1(C)CCN(c2ncc(C(F)(F)F)cc2NC(=O)c2ccc(C3CCOCC3)o2)CC1` [Compound 032, methyl 4-methyl-1-[3-[(5-tetrahydropyran-4-ylfuran-2-carbonyl)amino]-5-(trifluoromethyl)-2-pyridyl]piperidine-4-carboxylate] returned an IC50 of 114 nM.

As to `CC(=O)OC1CCN(c2ncc(C3CC3)cc2NC(=O)c2ccc(-c3ccncc3)o2)CC1` [Compound 033, 1-(5-cyclopropyl-3-(5-(pyridin-4-yl)furan-2-carboxamido)pyridin-2-yl) piperidin-4-yl acetate], the 50% inhibitory concentration (IC50) was found to be 202 nM.

Take `O=C(Nc1cc(C2CC2)cnc1N1CCC(O)CC1)c1ccc(-c2ccncc2)o1` [Compound 034]: the IC50 came to 24.8 nM.

Molecule `O=C(Nc1cc(C(F)(F)F)cnc1N1CCC(O)C1)c1ccc(C2CCOCC2)o1` (centres unmarked) [Compound 035] yielded an IC50 of over 30000 nM.

On to `O=C(Nc1cc(C(F)(F)F)cnc1N1CCCCC1)c1ccc(C2CCOCC2)o1` [Compound 036], for which the IC50 was over 30000 nM.

For the molecule `O=C(Nc1cc(C(F)(F)F)cnc1N1CCOCC1)c1ccc(C2CCOCC2)o1` [Compound 037], the concentration for half-maximal inhibition (IC50) was over 30000 nM.

In turn, `O=C(Nc1cc(C(F)(F)F)cnc1N1CCC(CO)C1)c1ccc(C2CCOCC2)o1` (centres unmarked) [Compound 038] had an IC50 of 24500 nM.

Molecule `O=C(Nc1cc(C(F)(F)F)cnc1N1CC(O)C1)c1ccc(C2CCOCC2)o1` [Compound 039] displayed an IC50 of over 30000 nM.

Molecule `CN(C)C(=O)C1CCN(c2ncc(C(F)(F)F)cc2NC(=O)c2ccc(C3CCOCC3)o2)CC1` [Compound 040] registered an IC50 of 193 nM. This counts as sub-micromolar.

Turning to `O=C(Nc1cc(C(F)(F)F)cnc1N1CCSCC1)c1ccc(C2CCOCC2)o1` [Compound 041], the half-inhibitory concentration (IC50) was over 30000 nM.

`O=C(Nc1cc(C(F)(F)F)cnc1N1CCS(=O)(=O)CC1)c1ccc(C2CCOCC2)o1` [Compound 042] came in with an IC50 of over 30000 nM.

As for `CC1(CN)CCN(c2ncc(C(F)(F)F)cc2NC(=O)c2ccc(C3CCOCC3)o2)CC1` [Compound 043], the IC50 is over 30000 nM.

Turning to `CC1(C(=O)O)CCN(c2ncc(C(F)(F)F)cc2NC(=O)c2ccc(C3CCOCC3)o2)CC1` [Compound 044], the IC50 came out at 154 nM.

In turn, `CN(C)C(=O)C1(C)CCN(c2ncc(C(F)(F)F)cc2NC(=O)c2ccc(C3CCOCC3)o2)CC1` [Compound 045] returned an IC50 of 84.5 nM.

For the molecule `O=C(Nc1cc(C(F)(F)F)cnc1N1CCC(O)CC1)c1ccncc1` [Compound 046, N-[2-(4-hydroxy-1-piperidyl)-5-(trifluoromethyl)-3-pyridyl]pyridine-4-carboxamide], the IC50 was over 30000 nM.

For the molecule `O=C(Nc1cc(C(F)(F)F)cnc1N1CCC(O)CC1)c1ccccn1` [Compound 047], the IC50 worked out at 260 nM.

Molecule `CC(=O)OC1CCN(c2ncc(C(F)(F)F)cc2NC(=O)c2ccc(-c3ccnnc3)o2)CC1` [Compound 049] registered an IC50 of 2340 nM.

As for `O=C(Nc1cc(C(F)(F)F)cnc1N1CCC(O)CC1)c1ccc(-c2ccnnc2)o1` [Compound 050], half-maximal inhibition (IC50) required 435 nM.

In the case of `O=C(Nc1cc(C(F)(F)F)cnc1N1CCC(O)CC1)c1cccnc1` [Compound 051], the 50% inhibitory concentration (IC50) is over 30000 nM.

Turning to `Cn1cc(-c2ccc(C(=O)Nc3cc(C(F)(F)F)cnc3N3CCC(O)CC3)o2)cn1` [Compound 054], inhibition was half-maximal at 18.5 nM (IC50).

Consider `CC1(O)CCCN(c2ncc(C(F)(F)F)cc2NC(=O)c2ccc(C3CCOCC3)o2)CC1` (centres unmarked) [Compound 055], for which the IC50 came out at 45.1 nM.

`O=C(Nc1cc(C(F)(F)F)cnc1N1CCC(O)CC1)c1ccc(-c2cccnc2)o1` [Compound 056] had an IC50 of 23.5 nM. Against the preceding molecule, the IC50 is about 1.9-fold lower.

`CNC(=O)C1(C)CCN(c2ncc(C(F)(F)F)cc2NC(=O)c2ccc(C3CCOCC3)o2)CC1` [Compound 057] returned an IC50 of 30.5 nM.

`CC1(O)CCCN(c2ncc(C(F)(F)F)cc2NC(=O)C2CCC(C3CCOCC3)O2)CC1` (centres unmarked) [Compound 058] showed an IC50 of 15700 nM.

Regarding `CC(=O)OC1CC2(CCN(c3ncc(C(F)(F)F)cc3NC(=O)c3ccc(C4CCOCC4)o3)CC2)C1` [Compound 059], half-maximal inhibition (IC50) required 78.7 nM. This IC50 is about 200-fold lower than that of the molecule before.

Take `O=C(Nc1cc(C(F)(F)F)cnc1N1CCC2(CC1)CC(O)C2)c1ccc(C2CCOCC2)o1` [Compound 060]: half-maximal inhibition (IC50) required 51.9 nM.

Turning to `O=C(Nc1cc(C(F)(F)F)cnc1N1CCC(O)CC1)c1ccc(C2CCNCC2)o1` [Compound 061], the IC50 turned out to be 8200 nM.

`O=C(Nc1cc(C(F)(F)F)cnc1C1CCNCC1)c1ccc(C2CCOCC2)o1` [Compound 062] registered an IC50 of over 30000 nM.

The molecule `O=C(Nc1cc(C(F)(F)F)cnc1N1CCC(O)CC1)c1ccc(-c2cncnc2)o1` [Compound 063] displayed a concentration for half-maximal inhibition (IC50) of 13500 nM. This lies in the double-digit micromolar range.

The molecule `O=C(Nc1cc(C(F)(F)F)cnc1N1CCC(O)(C(F)(F)F)CC1)c1ccc(-c2ccncc2)o1` [Compound 064] gave an IC50 of 249 nM. This IC50 lies about 54-fold lower than the previous one.
